Experimental data from US20240092741A1, “COMPOSITION FOR PREVENTION OR TREATMENT OF NEUROFIBROMATOSIS TYPE 2 SYNDROME” (PRG S&TECH INC., priority 2021, published 2024).

Assays:
HEI-193 cells [1] = assay: MTT cell viability assay in HEI-193 cells; type: cell-based, human; details: indicated concentrations, 7 days (FIG. 5A)
Method: (§1) To measure cell viability, MTT (3-(4,5-dimethylthiazol-2-yl)-2,5-diphenyltetrazolium bromide) assay was used. In other words, the cells were seeded in 96-well plates and treated with the indicated chemicals for a predetermined time. After removing the medium, 200 μl of MTT solution (0.5 mg/ml) dissolved in PBS was added to each well. Plates were then cultured at 37° C. for 4 hours, the MTT solution was removed, the precipitated substances were dissolved using a solution (DMSO:ethanol=1:1), and an amount of formazan dye produced was quantified by measuring the absorbance at 560 nm using an ELISA microplate reader (Thermo Fisher Scientific, MA, USA).

normal fibroblasts = assay: MTT cell viability assay in normal fibroblasts; type: cell-based, human; details: indicated concentrations, 7 days (FIG. 5A)
Method: as §1

[2] = system: NF2-transfected HEI-193 cells; assay: MTT and immunoblotting in NF2-transfected HEI-193 cells; type: cell-based, human; details: NF2-transfected HEI-193 cells (FIGS. 8B, 8C)
Method: In other words, cells were seeded at a density of 2×10^5 cells/well in 12-well plates and cultured overnight before transfection. The vector (1.5 μg) was mixed with 1.5 μl of Jetpei reagent dissolved in 150 mM NaCl solution. The mixture was reacted at room temperature for 15 minutes, and then added to the cells. After 3 hours, the serum-free medium 15 was replaced with medium supplemented with 10% FBS. Cells were harvested and lysed using RIPA buffer [50 mM Tris-Cl, pH 7.5, 150 mM NaCl, 1% NP-40, 0.1% SDS, and 10% sodium deoxycholate] to examine cellular signaling. Protein concentrations in samples were measured using Bio-Rad (Hercules, CA, USA) protein assay kits and BSA standards. […] The blots were detected using an HRP-conjugated secondary antibody using ECL kit (Intron, Seoul, Korea). […] Plates were then cultured at 37° C. for 4 hours, the MTT solution was removed, the precipitated substances were dissolved using a solution (DMSO:ethanol=1:1), and an amount of formazan dye produced was quantified by measuring the absorbance at 560 nm using an ELISA microplate reader (Thermo Fisher Scientific, MA, USA).

HEI-193 cells [3] = assay: Microarray gene expression profile of HEI-193 cells; type: cell-based, human; details: PRG-N-01-treated HEI-193 cells vs control
Method: Total RNA (500 ng) was extracted using an RNAeasy kit (Qiagen). RNA labeling, hybridization on Human Gene 1.0 ST array (Affymetrix), and data analysis were performed using DNA Link (Seoul, Korea). Genes showing at least a 2-fold difference in each cell line were selected for further analysis.

mouse schwannoma cells = assay: Allograft tumor growth assay; type: in vivo
Method: For allograft, 1×10^7 mouse schwannoma cells were seeded subcutaneously on FVB/NJ mice (8 weeks old). Tumor-bearing mice were administered with the carrier (n=8) or PRG-N-01 (20 mg/kg; n=8) by intraperitoneal injection for 5 weeks (3 times per week). Every week, the tumor volume and body weight were measured. After termination of the experiment in each group, mice were dissected, and tumor tissues were isolated.
To examine the in vivo effect of PRG-N-01, NF2 model mouse-derived schwannoma cells were allografted to 8-week-old mice, and PRG-N-01 was administered by intraperitoneal injection (20 mg/kg, 3 times a week).

[4] = isolated allograft tumors, RT-PCR (FIG. 17E)

SMILES: CCN(CC)CCOc1ccc(-c2nnn(Cc3ccc(OC)cc3)c2N)cc1 [PRG-N-01, 4-(4-(2-(diethylamino)ethoxy)phenyl)-1-(4-methoxybenzyl)-1H-1,2,3-triazol-5-amino]
- antiproliferative effect in NF2 cells (MTT) (HEI-193 cells [1]): obvious antiproliferative effect
- toxicity in normal fibroblasts (MTT) (normal fibroblasts): without causing toxicity
- chemical effect (antiproliferating effect, RKIP induction, p-Erk suppression) [2]: no chemical effect
- Log2Ratio, gene FABP3 (fatty acid binding protein 3, muscle and heart) (HEI-193 cells [3]): −2.272
- Log2Ratio, gene HIST1H1B (HEI-193 cells [3]): −2.475
- Log2Ratio, gene MEST (HEI-193 cells [3]): −1.95
- Log2Ratio, gene MMP1 (HEI-193 cells [3]): 2.163
- Log2Ratio, gene MSMO1 (HEI-193 cells [3]): −1.988
- Log2Ratio, gene OLFML3 (HEI-193 cells [3]): −2.099
- Log2Ratio, gene PBK (HEI-193 cells [3]): −1.976
- Log2Ratio, gene PLK1 (polo-like kinase 1) (HEI-193 cells [3]): −2.041
- Log2Ratio, gene PRR11 (HEI-193 cells [3]): −2.207
- Log2Ratio, gene TOP2A (HEI-193 cells [3]): −1.931
- cell-cycle-related genes (PLK1, CENPE) expression (HEI-193 cells [3]): downregulated
- lipid metabolism-related genes (PNILPRP3, NR4A2, ABCA1) expression (HEI-193 cells [3]): strikingly upregulated
- tenascin C gene expression (readout of canonical TGF-β signaling) (HEI-193 cells [3]): considerably upregulated
- SOX2 mRNA in tumor tissues (mouse schwannoma cells; [4]): reduction
- schwann cell markers and SOX10 mRNA in tumor tissues (mouse schwannoma cells; [4]): induction
- RKIP, schwann cell markers (PLP, MBP, MPZ) and SOX10 at the protein level in tumor tissues (mouse schwannoma cells; isolated allograft tumors, immunoblotting (FIG. 17D)): induction
- tumor growth (mouse schwannoma cells; mouse schwannoma allograft in FVB/NJ mice, 20 mg/kg i.p., 3 times a week, 5 weeks): inhibited tumor growth
- tumor size and weight (mouse schwannoma cells; mouse schwannoma allograft, 20 mg/kg i.p., 3 times a week, 5 weeks (FIGS. 17B, 17C)): obviously suppressed
